Measured values reported in patent US10791740B2, “Enhancement of antibiotic efficacy” (priority 2014, dated 2020).
Converted amounts (≈) assume the structure as drawn. Where two headings read alike, the source gives them in different places.

Legend:
[1] = test system: tetracycline resistant E. coli; format: cell-based, Escherichia coli; conditions: for MIC: single agent, Table 5; for MIC (μM) of amphiphile alone: tetracycline resistant E. coli, Tables 6 and 7
From the text: (§1) Certain aspects are drawn to a method for increasing or enhancing the antimicrobial activity of an antimicrobial agent. As used herein, the “antimicrobial activity” of an antimicrobial agent is defined as the property of a substance to inhibit the growth and reproduction of a microbial organism or to kill it. Common terms generally applied to bacteria are bacteriostatic (stops growth) and bactericidal (kills bacteria). Depending on the concentrations applied, microbial growth can be slowed or stopped in comparison to concurrent experiments conducted in the absence of an antimicrobial agent. Depending on the concentrations applied, additional microbe death can occur in comparison to concurrent experiments conducted in the absence of an antimicrobial agent. […] The MIC is the lowest concentration of any agent having antimicrobial activity that inhibits the growth of a microorganism as judged by visual inspection. MIC can be determined by inoculating media with the organism and adding the antimicrobial agent diluted successively in half.
(§2) Among the organisms studied are several strains of the bacterium E. coli.
N,N′-Dibenzyl-4,13-diaza-18-crown-6 is referred to in the table as dibenzyldiaza-18-crown-6.
(§3) Minimal Inhibitory Concentration (MIC) Procedure. […] Prepare initial concentration of all the compounds required. • 5. […] Vortex each test tube for 2-3 seconds. • 11.

[2] = cited from earlier work
E. coli [3] = conditions: Journal of the American Chemical Society 2002, 124, 9022-3, cited from earlier work
E. coli [4] = assay: MIC determination, E. coli (Table 1); format: cell-based, Escherichia coli; conditions: single agent
From the text: as §1, §2, §3

B. stubtilis = assay: MIC determination, B. subtilis (Table 1); format: cell-based, Bacillus subtilis; conditions: single agent
From the text: (§4) Certain aspects are drawn to a method for increasing or enhancing the antimicrobial activity of an antimicrobial agent. As used herein, the “antimicrobial activity” of an antimicrobial agent is defined as the property of a substance to inhibit the growth and reproduction of a microbial organism or to kill it. Common terms generally applied to bacteria are bacteriostatic (stops growth) and bactericidal (kills bacteria). Depending on the concentrations applied, microbial growth can be slowed or stopped in comparison to concurrent experiments conducted in the absence of an antimicrobial agent. Depending on the concentrations applied, additional microbe death can occur in comparison to concurrent experiments conducted in the absence of an antimicrobial agent. The results of minimum inhibitory concentration (MIC) evaluations and growth curves are presented herein and the conditions are specified. The MIC is the lowest concentration of any agent having antimicrobial activity that inhibits the growth of a microorganism as judged by visual inspection. MIC can be determined by inoculating media with the organism and adding the antimicrobial agent diluted successively in half. […] Reference herein to increasing or enhancing activity, efficacy, potency, and the like are used interchangeably to mean that when the synthetic amphiphile is present, the ability of the antimicrobial agent to inhibit the growth of or to kill an organism will be manifested at a concentration lower than would be required to achieve the same results in the absence of said synthetic amphiphile.
(§5) Among the organisms studied are several strains of the bacterium E. coli. […] Experiments were conducted to determine the MIC values for the synthetic amphiphiles known as lariat ethers according to the procedures described in Antimicrobial M07-A9: Methods for Dilution Antimicrobial Susceptibility Tests for Bacteria that Grow Aerobically; Clinical and Laboratory Standards Institute, 2012; Vol. 32, 67 pp. MIC values so determined for several lariat ethers and for several antibiotics are shown in Table 1.

S. cerevisiae = assay: MIC determination, S. cerevisiae (Table 1); format: cell-based, Saccharomyces cerevisiae; conditions: single agent
From the text: as §4, §5

DH5α E. coli [5] = assay: MIC of single agents against DH5α E. coli; format: cell-based, Escherichia coli
From the text: as §1, §2, §3

HEK-293 cells = assay: MTT assay of toxicity to HEK-293 cells
Method: The toxicity of C6. C8, C10. C11 and C14 lariat ethers to HEK-293 cells was determined by using an MTT assay. […] The abscissa is a logarithmic scale for the concentrations ranging from 1 μM to 1000 μM (1 mM) used in the experiment. The ordinate represents percent survival of HEK-293 cells.
Growth medium containing DMEM with high glucose (ATCC). 10% fetal bovine serum (FBS: Sigma-Aldrich) and 10 μg/mL of blasticidin (Thermo-Fischer) was prepared. HEK 293 cells were thawed out from cryo-preserved samples in 10 mL growth media, centrifuged at 500 rpm for 10 minutes to remove preservative. The cells were then resuspended in fresh growth medium and cultured using a T-75 flask (Thermo-Fischer) at 37° C. and 5% CO2. Cells were monitored for confluence and growth medium was replaced every 48 h, until cells were placed onto a 96-well plate for toxicity studies.
After reaching 80-90% confluence, cells were trypsinized and suspended in media containing DMEM and 10% FBS (no antibiotics). The cells were counted on a hemacytometer and plated at a density of 20,000 cells per well in a 96-well plate and grown for 24 hours to reach 60-70% confluence. DMSO stocks of C6, C8, C10, C11 and C14 diaza-18-crown-6 lariat ethers were prepared at […] and diluted 1:10 to get working concentrations of 20 mM, 2 mM, and 0.2 mM. Each stock was further diluted […] into DMEM supplemented with 10% FBS to get final concentrations of 1 mM, 0.1 mM, 0.01 mM (10 μM) and 0.001 mM (1 μM). The original media was then removed from the cells and replaced with 200 μL media containing the desired concentration of compound. Three wells were used for each concentration providing experimental triplicates. […] The absorbance was measured at 570 nm and nonspecific absorbance was corrected at 650 nm, using SpectraMax340 micro plate reader.
The experiment was performed in triplicate and the average of percent survival of three experiments was determined. […] The lethal dose 50 (LD50) for each compound was calculated by using the equation for a logarithmic regression curve.

DH5α E. coli [6] = assay: Inhibitory concentration (IC50) to DH5α E. coli cells (FIG. 4); format: cell-based, Escherichia coli; conditions: DH5α E. coli, FIG. 4
From the text: Two commonly used abbreviations are LD50 and IC50. The former is the concentration of an agent that comprises a lethal dose to 50% of the organism under study. The latter is the concentration of agent that inhibits growth of 50% of the organism under study. […] The abscissa represents the number of (CH2) groups in spacer chains. The ordinate is logarithmic and reflects the concentrations (in μM) of the various lariat ethers used.

[7] = test system: tetracycline resistant E. coli
Method: • 1. Steps 1-7, described in the MIC procedure, shown in Example 2, were followed. • 2. While the E. coli grew, the appropriate volume of compound was added to each test tube. • 3. Antibiotics were added at the required volume of solution to obtain the desired concentration in each test tube. […] Each test tube was vortexed for 2-3 seconds. • 5. Steps 10-12 from the MIC procedure, shown in Example 2, were then executed.

K-12 E. coli [8] = assay: MIC of single agents against K-12 E. coli
K-12 E. coli [9] = assay: Combination of amphiphile and antibiotic against K-12 E. coli
Method: (§6) Steps 1-7, described in the MIC procedure, shown in Example 2, were followed. • 2. While the E. coli grew, the appropriate volume of compound was added to each test tube. • 3. Antibiotics were added at the required volume of solution to obtain the desired concentration in each test tube. […] Each test tube was vortexed for 2-3 seconds. • 5. Steps 10-12 from the MIC procedure, shown in Example 2, were then executed.

DH5α E. coli [10] = assay: Combination of lariat ether and antibiotic against DH5α E. coli; conditions: 0.4 vol-% DMSO
Method: The volume of water added was between 12 to 0.5 μL. The volume of water added was not constant but the volume of media was changed so that the total volume was kept constant at 2 mL.
as §6

## c1ccc(CN2CCOCCOCCN(CCCCCCCCN3CCOCCOCCN(CCCCCCCCN4CCOCCOCCN(Cc5ccccc5)CCOCCOCC4)CCOCCOCC3)CCOCCOCC2)cc1 [C8 hydraphile]
[1]
  MIC: 250 ± 10 µM (≈ 297 µg/mL)
  MIC (μM) of amphiphile alone: 250 µM
[2]; DMPC, DOPC, or DEPC membranes
  cation transport in liposome membranes: failed to transport
E. coli [3]; listed as C8 benzyl hydraphile
  toxicity to E. coli: did not
E. coli [3]; listed as hydraphile having —(CH2)8— spacers
  toxicity to E. coli: did not exhibit toxicity

## c1ccc(CN2CCOCCOCCN(CCCCCCCCCCN3CCOCCOCCN(CCCCCCCCCCN4CCOCCOCCN(Cc5ccccc5)CCOCCOCC4)CCOCCOCC3)CCOCCOCC2)cc1
[1]
  MIC: 35 ± 5 µM (≈ 43.5 µg/mL)
  MIC (μM) of amphiphile alone: 35 µM
[2]; thickest DEPC membranes
  cation transport in liposome membranes: nearly inactive

## CCCCCCCCCCCN1CCOCCOCCN(CCCCCCCCCCC)CCOCCOCC1 [C11 lariat ether, N,N′-di-n-undecyl-4,13-diaza-18-crown-6]
E. coli [4]
  MIC: 24 µM (≈ 13.7 µg/mL)
B. stubtilis
  MIC (μM) B. stubtilis: 9 µM (≈ 5.14 µg/mL)
S. cerevisiae
  MIC (μM) S. cerevisiae: 1.5 µM (≈ 0.856 µg/mL)
DH5α E. coli [5]; DH5α E. coli, Tables 2 and 3
  MIC (μM) of lariat ether alone: 24 µM
DH5α E. coli [5]; single agent, values of the running text
  MIC to DH5α E. coli: 24 µM
[1]
  MIC: 24 µM (≈ 13.7 µg/mL)
  MIC (μM) of amphiphile alone: 24 µM
HEK-293 cells
  LD50 to HEK-293: 22 µM
DH5α E. coli [6]
  IC50: 12 µM
[7]; Tetracycline with 8 μM C11 lariat ether
  Fold Enhancement: 5 fold
[7]; Tetracycline with 12 μM C11 lariat ether
  Fold Enhancement: 10 fold
[7]; Tetracycline with 16 μM C11 lariat ether
  Fold Enhancement: 10 fold
[7]; Tetracycline with 18 μM C11 lariat ether
  Fold Enhancement: 10 fold
K-12 E. coli [8]
  MIC (μM) of amphiphile alone: 24 µM
K-12 E. coli [9]; Rifampicin with 6 μM C11 lariat ether
  Fold Enhancement: 2 fold
K-12 E. coli [9]; Tetracycline with 6 μM C11 lariat ether
  Fold Enhancement: ~2 fold
DH5α E. coli [10]; rifampicin with 8 μM n-C11 lariat ether
  Fold Enhancement: 4 fold
DH5α E. coli [10]; rifampicin with 12 μM n-C11 lariat ether
  Fold Enhancement: 10 fold
DH5α E. coli [10]; rifampicin with 16 μM n-C11 lariat ether
  Fold Enhancement: 10 fold
DH5α E. coli [10]; rifampicin with 18 μM n-C11 lariat ether
  Fold Enhancement: 20 fold
DH5α E. coli [10]; tetracycline with 4 μM n-C11 lariat ether
  Fold Enhancement: 4 fold
DH5α E. coli [10]; tetracycline with 12 μM n-C11 lariat ether
  Fold Enhancement: 12 fold
DH5α E. coli [10]; tetracycline with 16 μM n-C11 lariat ether
  Fold Enhancement: 48 fold
DH5α E. coli [10]; tetracycline with 18 μM n-C11 lariat ether
  Fold Enhancement: 8 fold
